From US20250122207A1, “AP2 ASSOCIATED KINASE 1 INHIBITORS AND USES THEREOF” (Satellos Bioscience Inc., priority 2023, published 2025)

How the values were obtained:
AAK1 = AAK1 (Homo sapiens, UniProt Q2M2I8); assay: pAP2M1 cell-based assay (in-cell Western); details: Hela cells co-transfected with AP2M1 and AAK1, 3 hr treatment; class symbols; read-out: AAK1 In-cell Western: IC50
Source text: pAP2M1 Cell-Based Assay (in-Cell Western):
The plate was read on Licor Odyssey CLx imaging system (LICOR) to acquire fluorescence intensity at 700 channel and 800 channel.
Data analysis: Fluorescence intensity at 700 channel served as internal standard and 800 channel were normalized with 700 channel.

[1] = target: T1, AAK1 (amino acids T27-A365) (Homo sapiens, UniProt Q2M2I8); assay: AAK1 pSENs assay; format: biochemical; details: class symbols; read-out: AAK1 pSENs: EIC50
T1 construct: against AAK1 (amino acids T27-A365); 6His (N, cleaved yes)
T1 sequence (Q2M2I8 27-365): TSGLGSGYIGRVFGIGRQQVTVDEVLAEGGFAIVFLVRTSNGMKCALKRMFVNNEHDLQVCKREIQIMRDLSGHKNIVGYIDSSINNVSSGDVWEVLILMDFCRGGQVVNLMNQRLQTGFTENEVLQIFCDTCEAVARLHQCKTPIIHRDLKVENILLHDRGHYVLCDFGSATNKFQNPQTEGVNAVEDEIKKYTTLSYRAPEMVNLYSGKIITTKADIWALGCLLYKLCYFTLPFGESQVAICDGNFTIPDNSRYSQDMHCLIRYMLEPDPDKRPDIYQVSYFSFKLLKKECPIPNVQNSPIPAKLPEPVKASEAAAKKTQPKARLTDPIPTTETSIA
Experimental: The recombinant proteins were independently expressed in Escherichia coli BL21(DE3) cells cultured in Luria-Bertani (LB) medium until OD600 reached 0.6-0.8, then cooled to 15° C. and supplemented with 0.5 mM isopropyl 1-thio-D-galactopyranoside (IPTG) induce protein expression 16 h. Cells were harvested and resuspended in lysis buffer (50 mM HEPES pH 7.5, 500 mM NaCl, 5 mM imidazole, 5% glycerol, 0.5 mM Tris (2-carboxyethyl) phosphine (TCEP), cOmplete Protease Inhibitor Tablet (Roche)) and lysed by microfludics high pressure homogenizer (UH-06, Union-Biotech). Proteins were purified using […] chromatography (His FF column, Bestchrom) and eluted stepwise in binding buffer with 20-300 mM imidazole. Removal of the hexahistidine tag was performed at 4° C. overnight using recombinant TEV protease and reacted with BirA to obtain the corresponding biotinylated-AAK1, BIKE or GAK proteins. Further separated in the reverse Strep column (Strep-Tactin® XT, IBA). The Biotin elution sample was collected containing untagged biotinylated protein was then purified by Ion-exchange chromatography (Mono Q 10/100 GL, Cytiva) and Size-exclusion chromatography (HiLoad 16/600 Superdex 200 pg, Cytiva). The pure protein was stored in a storage buffer 50 mM HEPES (pH 7.5), 300 mM NaCl, 5% glycerol at −80° C. Protein were characterized by SDS-PAGE, LC-MS and aSEC.
This example describes one illustrative method for determining the IC50 of the compounds of the present invention against AAK1 (amino acids T27-A365). AAK1 protein was dissolved at 20 nM in 1× enzyme solution (50 mM HEPES pH7.5, 10 mM MgCl2, 1 mM DTT, 1% glycerol, 0.5 mM EGTA, 0.01% Briji35, 0.02% BSA) and 12.5 ul was incubated with 250 nl DMSO or 250 nl compound in DMSO at 25° C. for 15 min. The reaction was started by addition of 12.5 ul of 30 uM AQT0759 (Assayquant, CSKS-AQT0759B) and 70 uM ATP which were diluted in 1× substrate dilution buffer (50 mM HEPES pH7.5, 10 mM MgCl2, 1 mM DTT, 1% glycerol, 0.5 mM EGTA, 0.01% Briji35).

AAK1, sequence (Q2M2I8 whole entry): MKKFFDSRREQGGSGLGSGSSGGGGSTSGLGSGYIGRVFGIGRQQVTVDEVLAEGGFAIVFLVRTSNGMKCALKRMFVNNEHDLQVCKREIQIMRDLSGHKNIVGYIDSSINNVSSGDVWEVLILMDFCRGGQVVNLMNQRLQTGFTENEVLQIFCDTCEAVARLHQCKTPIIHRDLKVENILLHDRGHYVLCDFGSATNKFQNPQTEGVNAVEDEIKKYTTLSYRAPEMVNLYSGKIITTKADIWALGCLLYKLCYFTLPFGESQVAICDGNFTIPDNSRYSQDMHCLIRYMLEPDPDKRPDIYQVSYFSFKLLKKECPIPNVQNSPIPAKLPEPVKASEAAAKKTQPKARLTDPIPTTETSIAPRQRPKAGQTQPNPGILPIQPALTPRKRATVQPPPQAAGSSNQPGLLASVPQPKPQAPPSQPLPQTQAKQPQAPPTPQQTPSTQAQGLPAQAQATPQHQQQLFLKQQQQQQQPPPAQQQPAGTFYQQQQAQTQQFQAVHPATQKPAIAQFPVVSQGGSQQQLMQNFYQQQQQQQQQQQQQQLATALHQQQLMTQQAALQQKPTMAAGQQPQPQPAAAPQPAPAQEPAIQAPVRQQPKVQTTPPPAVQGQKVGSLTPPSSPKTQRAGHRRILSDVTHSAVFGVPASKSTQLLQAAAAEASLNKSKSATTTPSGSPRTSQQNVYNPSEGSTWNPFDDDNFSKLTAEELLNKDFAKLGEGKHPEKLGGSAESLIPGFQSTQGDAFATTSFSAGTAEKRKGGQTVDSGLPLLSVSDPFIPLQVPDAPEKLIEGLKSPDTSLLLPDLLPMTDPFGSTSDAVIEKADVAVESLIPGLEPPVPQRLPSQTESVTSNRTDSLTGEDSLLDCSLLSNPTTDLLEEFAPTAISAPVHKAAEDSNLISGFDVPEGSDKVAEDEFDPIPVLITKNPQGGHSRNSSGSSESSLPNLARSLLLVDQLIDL

| IC50 (AAK1) [µM] | IC50 [1] [µM] | Compound |
| --- | --- | --- |
| > 1.5 | > 1.5 | O=C1C[C@H](OC(=O)N2CCN(c3ccn4ncc(-c5cccnc5NC5CNC5)c4n3)CC2)CN1 [Compound I-49, (S)-5-oxopyrrolidin-3-yl4-(3-(2-(azetidin-3-ylamino)pyridin-3-yl)pyrazolo[1,5-a]pyrimidin-5-yl)piperazine-1-carboxylate] |
| > 1.5 | > 1.5 | COc1cn2ncc(-c3cccnc3OC3CC3)c2nc1N1CCN(C(=O)O[C@H]2CC(=O)N(C)C2)CC1 [Compound I-110-9, [(3S)-1-methyl-5-oxo-pyrrolidin-3-yl]-4-[3-[2-(cyclopropoxy)-3-pyridyl]-6-methoxy-pyrazolo[1,5-a]pyrimidin-5-yl]piperazine-1-carboxylate] |
| > 1.5 | 0.151 to 0.5 | C[C@@]1(OC(=O)N[C@@H]2CCN(c3ccn4ncc(-c5cccnc5OC5CC5)c4n3)C2)CCNC1 [Compound I-56, (R)-3-methylpyrrolidin-3-yl ((R)-1-(3-(2-cyclopropoxypyridin-3-yl)pyrazolo[1,5-a]pyrimidin-5-yl)pyrrolidin-3-yl)carbamate] |
| 0.501 to 1.5 | 0.051 to 0.15 | O=C(O[C@H]1CO[C@H]2OCC[C@H]21)N1CCN(c2ccn3ncc(-c4ccccc4OC4CC4)c3n2)CC1 [Compound I-68, [(3aS,4R,6aR)-2,3,3a,4,5,6a-hexahydrofuro[2,3-b]furan-4-yl]4-[3-[2-(cyclopropoxy)phenyl]pyrazolo[1,5-a]pyrimidin-5-yl]piperazine-1-carboxylate] |
| > 1.5 | 0.151 to 0.5 | COC(=O)[C@@H]1CN(c2ccn3ncc(-c4cccnc4OC4CC4)c3n2)CCN1C(=O)O[C@@H]1CNC(=O)C1 [Compound I-41-5, 2-Methyl 1-((S)-5-oxopyrrolidin-3-yl) (S)-4-(3-(2-cyclopropoxypyridin-3-yl)pyrazolo[1,5-a]pyrimidin-5-yl)piperazine-1,2-dicarboxylate] |
| > 1.5 | 0.501 to 1.5 | O=C1C[C@H](OC(=O)N[C@@H]2CCN(c3ccn4ncc(-c5cccnc5OC5CC5)c4n3)C2)CN1 [Compound I-54, [(3S)-5-oxopyrrolidin-3-yl]N-[(3R)-1-[3-[2-(cyclopropoxy)-3-pyridyl]pyrazolo[1,5-a]pyrimidin-5-yl]pyrrolidin-3-yl]carbamate] |
| > 1.5 | > 1.5 | O=C(O[C@@H]1CC(=O)N(C2CCNCC2)C1)N1CCN(c2ccn3ncc(-c4cccnc4OC4CC4)c3n2)CC1 [Compound I-33, (R)-5-Oxo-1-(piperidin-4-yl)pyrrolidin-3-yl 4-(3-(2-cyclopropoxypyridin-3-yl)pyrazolo[1,5-a]pyrimidin-5-yl)piperazine-1-carboxylate] |
| > 1.5 | 0.151 to 0.5 | O=C1C[C@H](OC(=O)N[C@H]2CCN(c3ccn4ncc(-c5cccnc5OC5CC5)c4n3)C2)CN1 [Compound I-55, (S)-5-oxopyrrolidin-3-yl ((S)-1-(3-(2-cyclopropoxypyridin-3-yl)pyrazolo[1,5-a]pyrimidin-5-yl)pyrrolidin-3-yl)carbamate] |
| > 1.5 | 0.501 to 1.5 | COC(=O)N1CC(Oc2ncccc2-c2cnn3ccc(N4CCN(C(=O)O[C@@H]5CC(=O)N(C6COC6)C5)CC4)nc23)C1 [Compound I-85, [(3R)-1-(oxetan-3-yl)-5-oxo-pyrrolidin-3-yl]-4-[3-[2-(1-methoxycarbonylazetidin-3-yl)oxy-3-pyridyl]pyrazolo[1,5-a]pyrimidin-5-yl]piperazine-1-carboxylate] |
| > 1.5 | 0.151 to 0.5 | N#C[C@@H]1CN(c2ccn3ncc(-c4cccnc4OC4CC4)c3n2)CCN1C(=O)O[C@@H]1CNC(=O)C1 [Compound I-41, (S)-5-Oxopyrrolidin-3-yl (S)-2-cyano-4-(3-(2-cyclopropoxypyridin-3-yl)pyrazolo[1,5-a]pyrimidin-5-yl)piperazine-1-carboxylate] |
| > 1.5 | 0.151 to 0.5 | C[C@H]1CN(c2ccn3ncc(-c4cccnc4OC4CC4)c3n2)CCN1C(=O)O[C@@H]1CNC(=O)C1 [Compound I-40, [(3S)-5-Oxopyrrolidin-3-yl](2S)-4-[3-[2-(cyclopropoxy)-3-pyridyl]pyrazolo[1,5-a]pyrimidin-5-yl]-2-methyl-piperazine-1-carboxylate] |
| > 1.5 | 0.151 to 0.5 | NC(=O)[C@@H]1CN(c2ccn3ncc(-c4cccnc4OC4CC4)c3n2)CCN1C(=O)O[C@@H]1CNC(=O)C1 [Compound I-41-6, (S)-5-Oxopyrrolidin-3-yl-(S)-2-carbamoyl-4-(3-(2-cyclopropoxypyridin-3-yl)pyrazolo[1,5-a]pyrimidin-5-yl)piperazine-1-carboxylate] |
| > 1.5 | > 1.5 | O=C1C[C@H](OC(=O)N2CCN(c3ccn4ncc(-c5cccnc5OC5CC5)c4n3)C[C@H]2C(=O)O)CN1 [Compound I-41-4C, (S)-4-(3-(2-Cyclopropoxypyridin-3-yl)pyrazolo[1,5-a]pyrimidin-5-yl)-1-((((S)-5-oxopyrrolidin-3-yl)oxy)carbonyl)piperazine-2-carboxylic acid] |
| > 1.5 | > 1.5 | Cc1nn2ccc(N3CCN(C(=O)O[C@H]4CC(=O)N(C)C4)CC3)nc2c1-c1cccnc1OC1CC1 [Compound I-108, [(3S)-1-methyl-5-oxo-pyrrolidin-3-yl]-4-[3-[2-(cyclopropoxy)-3-pyridyl]-2-methyl-pyrazolo[1,5-a]pyrimidin-5-yl]piperazine-1-carboxylate] |
| > 1.5 | > 1.5 | CC(C)Nc1ncccc1-c1cnn2ccc(N3CCN(C(=O)O[C@@H]4CNC(=O)C4)CC3)nc12 [Compound I-47, [(3S)-5-oxopyrrolidin-3-yl]4-[3-[2-(isopropylamino)-3-pyridyl]pyrazolo[1,5-a]pyrimidin-5-yl]piperazine-1-carboxylate] |

| Compound | IC50 (AAK1) [µM] | IC50 [1] [µM] |
| --- | --- | --- |
| CN(C)CCN1CC[C@@](C)(OC(=O)N2CCN(c3ccn4ncc(-c5cccnc5OC5CC5)c4n3)CC2)C1 [Compound I-53, (R)-1-(2-(dimethylamino)ethyl)-3-(methylpyrrolidin-3-yl)-4-(3-(2-cyclopropoxypyridin-3-yl)pyrazolo[1,5-a]pyrimidin-5-yl)piperazine-1-carboxylate] | 0.151 to 0.5 | 0.001 to 0.05 |
| CN(CCN1C[C@@H](OC(=O)N2CCN(c3ccn4ncc(-c5cccnc5OC5CC5)c4n3)CC2)CC1=O)C(=O)OC(C)(C)C [Compound I-35, (S)-1-(2-((tert-butoxycarbonyl)(methyl)amino)ethyl)-5-oxopyrrolidin-3-yl-4-(3-(2-cyclopropoxypyridin-3-yl)pyrazolo[1,5-a]pyrimidin-5-yl)piperazine-1-carboxylate] | > 1.5 | 0.051 to 0.15 |
| CN1C[C@@H](OC(=O)N2CCN(c3nc4c(-c5cccnc5OC5CC5)cnn4cc3O)CC2)CC1=O [Compound I-110, [(3S)-1-methyl-5-oxo-pyrrolidin-3-yl]-4-[3-[2-(cyclopropoxy)-3-pyridyl]-6-hydroxy-pyrazolo[1,5-a]pyrimidin-5-yl]piperazine-1-carboxylate] | > 1.5 | > 1.5 |
| O=C(O[C@H]1CO[C@H]2OCC[C@H]21)N1CCN(c2ccn3ncc(-c4ccncn4)c3n2)CC1 [Compound I-67, [(3aS,4R,6aR)-2,3,3a,4,5,6a-hexahydrofuro[2,3-b]furan-4-yl]4-(3-pyrimidin-4-ylpyrazolo[1,5-a]pyrimidin-5-yl)piperazine-1-carboxylate] | > 1.5 | 0.501 to 1.5 |
| CC(C)(C)OC(=O)N1CC(Nc2ncccc2-c2cnn3ccc(N4CCN(C(=O)O[C@@H]5CNC(=O)C5)CC4)nc23)C1 [Compound I-48, [(3S)-5-oxopyrrolidin-3-yl]4-[3-[2-[(1-tert-butoxycarbonylazetidin-3-yl)amino]-3-pyridyl]pyrazolo[1,5-a]pyrimidin-5-yl]piperazine-1-carboxylate] | > 1.5 | 0.501 to 1.5 |
| COC(=O)N1CC(Oc2ncccc2-c2cnn3ccc(N4CCN(C(=O)O[C@@H]5CC(=O)N(CCO)C5)CC4)nc23)C1 [Compound I-84, [(3R)-1-(2-hydroxyethyl)-5-oxo-pyrrolidin-3-yl]4-[3-[2-(1-methoxycarbonylazetidin-3-yl)oxy-3-pyridyl]pyrazolo[1,5-a]pyrimidin-5-yl]piperazine-1-carboxylate] | > 1.5 | 0.151 to 0.5 |
